What was measured:
HKB-11 lymphoma cells [1] = test: ROS production, H2DCFDA assay; assay type: cell-based, human; conditions: 4 h
Procedure: Briefly, HKB-11 lymphoma cells (2.5 × 10^5 cells/mL) were cultured in a 96-well plate, allowed to adhere overnight, and treated with 20 μM H2DCFDA for 45 min to assess ROS levels. The dye solution was removed, and cells were washed with 1× buffer. Next, the cells were treated with N (8000 μM), N (4000 μM), UB (500 μM), UB (250 μM), N/UB (3500 μM), N/UB (1750 μM), N/UB (5750 μM), N/UB (2875 μM), Dox (4 μM), and tert-butyl hydroperoxide (TBHP) (150 μM) and then incubated at 37 °C for 4 h. Finally, the plate was immediately read at Ex/Em = 485/535 nm using a microplate spectrophotometer (BMG CLARIOstar, VIC, Australia). The fold change in ROS production was determined relative to the untreated control (cells treated with the supplement buffer according to the manufacturer’s protocol).

HKB-11 lymphoma cells [2] = test: Flow cytometry apoptosis profile, Annexin V-CF Blue / 7-AAD; assay type: cell-based, human; conditions: 24 h
Procedure: The HKB-11 cells were cultured in T75 cell culture flasks with an initial density of 1 × 10^6 cells per 10 mL at 37 °C in the presence of 5% CO2 for 24 h. The following day, the cell culture media was removed from each flask and replaced with fresh FBS-containing media. […] An FBS-containing medium was used as the untreated control. The flasks were then incubated at 37 °C with 5% CO2 for 24 h. Then, the cell culture media from each flask were collected. Subsequently, trypsin (0.25% w/v) was applied to the flasks for 4 min at 37 °C. The trypsin reaction was neutralised with an equal volume of 10% FBS serum-containing media, and the cells were combined with the previously collected media. The cell pellets were obtained by centrifuging at 500× g for 5 min at room temperature (RT). This procedure was repeated by suspending the cell pellets in 1 mL of PBS each time. The collected cell pellets from each treatment were immediately suspended in 500 μL of 1× binding buffer and gently mixed by pipetting. Annexin V-CF Blue (5 μL) and 7-AAD (5 μL) staining solutions were added to 100 μL of the cell suspension. The stained cells were incubated for 15 min in the dark at RT, after which 400 μL of a 1× assay buffer was added to each cell suspension. Subsequently, the cells were examined using a flow cytometer (Novocyte 3000, ACEA Biosciences Inc., San Diego, CA, USA), and data analysis and processing were performed using NovoExpress software (version 1.5.0, ACEA Biosciences Inc., CA, USA). In the initial step, the cells were gated on forward and side scatter modes to exclude cell aggregates and debris near the origin. The cells were then gated on dot plots, where Annexin V-CF in Pacific Blue was plotted against 7-AAD fluorescence in PerCP. Quadrants were positioned relative to the untreated control, indicating live cells ([…] and −7-AAD) appearing in the lower-left quadrant, early apoptotic cells (+Annexin V and −7-AAD) in the lower-right quadrant, late apoptotic cells (+Annexin V and +7-AAD) in the upper-right quadrant, and necrotic cells (−Annexin V and +7-AAD) in the upper-left quadrant. For statistical analyses and visualisation, the percentage data of cells in each quadrant after different treatments (n = 3) were exported to GraphPad Prism software (version 9.0, San Diego, CA, USA).

[3] = cited from earlier work
Text: Both N and UB face challenges regarding bioavailability. […] Thus, formulation strategies or delivery systems to enhance systemic exposure warrant exploration in future studies.

Nisin (ITSISLCTPGCKTGALMGCNMKTATCHCSIHVSK; Lantibiotic nisin-A; UniProt P13068 24-57, looked up) [34-amino-acid lantibiotic peptide (bacteriocin) produced by Lactococcus lactis; purchased]
ROS levels compared to the untreated control (HKB-11 lymphoma cells [1]; HKB-11, 8000 μM, p ≤ 0.01, n = 3): statistically significant increase
Apoptosis induction (HKB-11 lymphoma cells [2]; HKB-11, 3200 µM, p ≤ 0.0001, compared with 8000 μM): induced apoptosis with greater potency
Cell death relative to untreated controls (HKB-11 lymphoma cells [2]; HKB-11, 8000 μM, p ≤ 0.01, apoptotic and necrotic populations elevated): significantly increased cell death
Proteolytic stability [3]: susceptibility to proteolytic degradation
Stability in the gastrointestinal tract [3]: degraded in the gastrointestinal tract
Systemic absorption [3]: low systemic absorption

O=c1oc2cc(O)ccc2c2ccccc12 [UB, Urolithin B]
ROS levels compared to the untreated control (HKB-11 lymphoma cells [1]; HKB-11, 500 μM and 250 μM, p ≥ 0.05, n = 3): minimal changes
Apoptosis induction compared to the untreated control (HKB-11 lymphoma cells [2]; HKB-11, 500 µM, p ≤ 0.0001): greater apoptotic induction
Metabolism [3]: extensively metabolised
Oral bioavailability [3]: moderate oral bioavailability

— paper PMC12295306, “Gut Microbial Postbiotics as Potential Therapeutics for Lymphoma: Proteomics Insights of the Synergistic Effects of Nisin and Urolithin B Against Human Lymphoma Cells” (International Journal of Molecular Sciences, 2025)
